Results published in ChEMBL document CHEMBL3885881, “DrugMatrix”.

Species: Rattus norvegicus
Assay: DrugMatrix - Regimen: Daily Repeat
Assay type: toxicity, organism-based, Sprague-Dawley
Set-up: regimen Daily Repeat, gender Male, age 6-8 weeks
Conditions: in vivo, po, route oral GAVAGE, […]; for ABSOLUTE BASOPHIL / ABSOLUTE EOSINOPHIL / ABSOLUTE LYMPHOCYTE / ABSOLUTE MONOCYTE / ABSOLUTE SEGMENTED NEUTROPHIL / BASOPHIL / EOSINOPHIL / ERYTHROCYTE COUNT / HEMATOCRIT / HEMOGLOBIN / LEUKOCYTE COUNT / LYMPHOCYTE / MEAN CORPUSCULAR HEMOGLOBIN / MEAN CORPUSCULAR HEMOGLOBIN CONCENTRATION / MEAN CORPUSCULAR VOLUME / MONOCYTE / NEUTROPHIL / NUCLEATED RED BLOOD CELLS / PLATELET COUNT: tissue Blood; for ALANINE AMINOTRANSFERASE / ALBUMIN / ALKALINE PHOSPHATASE / ASPARTATE AMINOTRANSFERASE / BLOOD UREA NITROGEN / CARBON DIOXIDE / CHLORIDE / CHOLESTEROL / CREATINE PHOSPHOKINASE / CREATININE / GLUCOSE / LACTATE DEHYDROGENASE / LIPASE / PHOSPHORUS / POTASSIUM / SODIUM / TOTAL BILIRUBIN / TOTAL PROTEIN / URIC ACID: tissue Plasma
[1] = 0 mg/kg, 72 h, dose level Control, time 3 day
[2] = 0 mg/kg, 120 h, dose level Control, time 5 day
[3] = 25 mg/kg, 72 h, dose level Low, time 3 day

CC(C)(C)NC(=O)[C@H]1CC[C@H]2[C@@H]3CC[C@H]4NC(=O)C=C[C@]4(C)[C@H]3CC[C@]12C [FINASTERIDE]
ABSOLUTE BASOPHIL [1]: 0 CELLS/uL | ABSOLUTE EOSINOPHIL [1]: 52.33 CELLS/uL | ABSOLUTE LYMPHOCYTE [1]: 9105.33 CELLS/uL | ABSOLUTE MONOCYTE [1]: 155.67 CELLS/uL | ABSOLUTE SEGMENTED NEUTROPHIL [1]: 1020 CELLS/uL | BASOPHIL [1]: 0% | EOSINOPHIL [1]: 0.33% | ERYTHROCYTE COUNT [1]: 5.03 x10E6/uL | HEMATOCRIT [1]: 31.63% | HEMOGLOBIN [1]: 12.37 G/DL | LEUKOCYTE COUNT [1]: 10.33 x10E3/uL | LYMPHOCYTE [1]: 87% | MEAN CORPUSCULAR HEMOGLOBIN [1]: 24.57 pg | MEAN CORPUSCULAR HEMOGLOBIN CONCENTRATION [1]: 39.07 G/DL | MEAN CORPUSCULAR VOLUME [1]: 62.93 fL | MONOCYTE [1]: 1.33% | NEUTROPHIL [1]: 11.33% | NUCLEATED RED BLOOD CELLS [1]: 0 /100WBC | PLATELET COUNT [1]: 896 x10E3/uL | ALANINE AMINOTRANSFERASE [1]: 75.33 u/L | ALBUMIN [1]: 3.77 G/DL | ALKALINE PHOSPHATASE [1]: 378.67 u/L | ASPARTATE AMINOTRANSFERASE [1]: 101.33 u/L | BLOOD UREA NITROGEN [1]: 11.33 mg/dL | CARBON DIOXIDE [1]: 25 mmol/L | CHLORIDE [1]: 99 MEQ/L | CHOLESTEROL [1]: 66 mg/dL | CREATINE PHOSPHOKINASE [1]: 277 u/L | CREATININE [1]: 0.33 mg/dL | GLUCOSE [1]: 198.33 mg/dL | LACTATE DEHYDROGENASE [1]: 140.33 u/L | LIPASE [1]: 11.33 u/L | PHOSPHORUS [1]: 11.83 mg/dL | POTASSIUM [1]: 5.37 MEQ/L | SODIUM [1]: 141.03 MEQ/L | TOTAL BILIRUBIN [1]: 0.2 mg/dL | TOTAL PROTEIN [1]: 5.47 G/DL | URIC ACID [1]: 0.93 mg/dL | ABSOLUTE BASOPHIL [2]: 0 CELLS/uL | ABSOLUTE EOSINOPHIL [2]: 0 CELLS/uL | ABSOLUTE LYMPHOCYTE [2]: 8734 CELLS/uL | ABSOLUTE MONOCYTE [2]: 98.67 CELLS/uL | ABSOLUTE SEGMENTED NEUTROPHIL [2]: 1034 CELLS/uL | BASOPHIL [2]: 0% | EOSINOPHIL [2]: 0% | ERYTHROCYTE COUNT [2]: 5.19 x10E6/uL | HEMATOCRIT [2]: 33.2% | HEMOGLOBIN [2]: 12.93 G/DL | LEUKOCYTE COUNT [2]: 9.87 x10E3/uL | LYMPHOCYTE [2]: 87% | MEAN CORPUSCULAR HEMOGLOBIN [2]: 25 pg | MEAN CORPUSCULAR HEMOGLOBIN CONCENTRATION [2]: 39.03 G/DL | MEAN CORPUSCULAR VOLUME [2]: 63.93 fL | MONOCYTE [2]: 1% | NEUTROPHIL [2]: 12% | NUCLEATED RED BLOOD CELLS [2]: 0 /100WBC | PLATELET COUNT [2]: 1190 x10E3/uL | ALANINE AMINOTRANSFERASE [2]: 75.67 u/L | ALBUMIN [2]: 4 G/DL | ALKALINE PHOSPHATASE [2]: 384.33 u/L | ASPARTATE AMINOTRANSFERASE [2]: 89.67 u/L | BLOOD UREA NITROGEN [2]: 13 mg/dL | CARBON DIOXIDE [2]: 32.67 mmol/L | CHLORIDE [2]: 103 MEQ/L | CHOLESTEROL [2]: 79.67 mg/dL | CREATINE PHOSPHOKINASE [2]: 199.33 u/L | CREATININE [2]: 0.29 mg/dL | GLUCOSE [2]: 161.33 mg/dL | LACTATE DEHYDROGENASE [2]: 92.33 u/L | LIPASE [2]: 11.67 u/L | PHOSPHORUS [2]: 10.8 mg/dL | POTASSIUM [2]: 5.38 MEQ/L | SODIUM [2]: 145.3 MEQ/L | TOTAL BILIRUBIN [2]: 0.17 mg/dL | TOTAL PROTEIN [2]: 5.7 G/DL | URIC ACID [2]: 0.63 mg/dL | ABSOLUTE BASOPHIL [3]: 0 CELLS/uL | ABSOLUTE EOSINOPHIL [3]: 0 CELLS/uL | ABSOLUTE LYMPHOCYTE [3]: 6334 CELLS/uL | ABSOLUTE MONOCYTE [3]: 74.67 CELLS/uL | ABSOLUTE SEGMENTED NEUTROPHIL [3]: 624.67 CELLS/uL | BASOPHIL [3]: 0% | EOSINOPHIL [3]: 0% | ERYTHROCYTE COUNT [3]: 5.31 x10E6/uL | HEMATOCRIT [3]: 33.17% | HEMOGLOBIN [3]: 12.87 G/DL | LEUKOCYTE COUNT [3]: 7.03 x10E3/uL | LYMPHOCYTE [3]: 89.67% | MEAN CORPUSCULAR HEMOGLOBIN [3]: 24.23 pg | MEAN CORPUSCULAR HEMOGLOBIN CONCENTRATION [3]: 38.8 G/DL | MEAN CORPUSCULAR VOLUME [3]: 62.43 fL | MONOCYTE [3]: 1% | NEUTROPHIL [3]: 9.33% | NUCLEATED RED BLOOD CELLS [3]: 0 /100WBC | PLATELET COUNT [3]: 1308 x10E3/uL | ALANINE AMINOTRANSFERASE [3]: 57.33 u/L | ALBUMIN [3]: 3.9 G/DL | ALKALINE PHOSPHATASE [3]: 360 u/L | ASPARTATE AMINOTRANSFERASE [3]: 80.67 u/L | BLOOD UREA NITROGEN [3]: 11 mg/dL | CARBON DIOXIDE [3]: 26.33 mmol/L | CHLORIDE [3]: 101.33 MEQ/L | CHOLESTEROL [3]: 77 mg/dL | CREATINE PHOSPHOKINASE [3]: 434.67 u/L | CREATININE [3]: 0.12 mg/dL | GLUCOSE [3]: 184.33 mg/dL | LACTATE DEHYDROGENASE [3]: 112 u/L | LIPASE [3]: 10.67 u/L | PHOSPHORUS [3]: 12.1 mg/dL | POTASSIUM [3]: 4.86 MEQ/L | SODIUM [3]: 144.9 MEQ/L | TOTAL BILIRUBIN [3]: 0.2 mg/dL | TOTAL PROTEIN [3]: 5.83 G/DL | URIC ACID [3]: 0.87 mg/dL
